Columns and labels:
Format in all cases: in vivo
[1] = tested on: blackgrass (Alopecurus myosuroides); assay: Test B postemergence
How it was run: (§1)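 Greenhouse test: chemicals are formulated in a surfactant-containing non-phytotoxic solvent and applied either preemergence to planted seeds or postemergence to plants 2 to 18 cm tall. Response is rated visually versus controls after 13 to 15 days, 0 meaning no effect and 100 complete control.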

corn (Zea mays) [2] = assay: Test B postemergence
How it was run: as §1

[3] = tested on: velvetleaf (Abutilon theophrasti); assay: Test B postemergence
How it was run: as §1

[4] = tested on: wheat (Triticum aestivum); assay: Test B postemergence
How it was run: as §1

wild oat (Avena fatua) = assay: Test B postemergence
How it was run: as §1

Sunflower = assay: Test C preemergence; settings: Rate 125 g/ha; scale 0 to 100, 0 no effect, 100 complete control
[5] = tested on: Surinam grass (Brachiaria decumbens); assay: Test C preemergence
How it was run: (§2)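 Formulation: non-phytotoxic solvent mix incl. surfactant. Pre: applied right after planting. Post: 1–4-leaf seedlings. Read: visual 0–100, day 12–14, greenhouse.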

[6] = tested on: bermudagrass (Cynodon dactylon); assay: Test C preemergence
How it was run: as §2

corn (Zea mays) [7] = assay: Test C preemergence
How it was run: as §2

[8] = tested on: crabgrass (Digitaria sanguinalis); assay: Test C preemergence
How it was run: as §2

[9] = tested on: giant foxtail (Setaria faberii); assay: Test C preemergence
How it was run: as §2

[10] = tested on: goosegrass (Eleusine indica); assay: Test C preemergence
How it was run: as §2

[11] = tested on: johnsongrass (Sorghum halepense); assay: Test C preemergence
How it was run: as §2

[12] = tested on: lambsquarters (Chenopodium album); assay: Test C preemergence
How it was run: as §2

[13] = tested on: morningglory (Ipomoea hederacea); assay: Test C preemergence
How it was run: as §2

[14] = tested on: pigweed (Amaranthus retroflexus); assay: Test C preemergence
How it was run: as §2

soybean (Glycine max) = assay: Test C preemergence
How it was run: as §2

[15] = tested on: velvetleaf (Abutilon theophrasti); assay: Test C preemergence
How it was run: as §2

[16] = tested on: woolly cupgrass (Eriochloa villosa); assay: Test C preemergence
How it was run: as §2

[17] = tested on: yellow nutsedge (Cyperus esculentus); assay: Test C preemergence
How it was run: as §2

[18] = Rate 125 g/ha, scale 0 to 100, 0 no effect, 100 complete control
[19] = Rate 500 g/ha, scale 0 (no effect) to 100 (complete control), 13 to 15 days
[20] = preemergence, Rate 62 g/ha, scale 0 to 100
[21] = preemergence, Rate 500 g/ha, visual evaluation after 12 to 14 days
[22] = preemergence, Rate 250 g/ha, scale 0 to 100, 0 no effect, 100 complete control

CCC(CC)c1ccn(C2CCN(c3ccc(Br)c(OC)c3)C2=O)n1 (stereo not shown) [Compound 143]
Plant response rating, Blackgrass [1, 18]: 0
Plant response rating, Blackgrass [1, 19]: 0
Plant response rating, Corn (corn (Zea mays) [2]; [18]): 0
Plant response rating, Corn (corn (Zea mays) [2]; [19]): 0
Plant response rating, Velvetleaf [3, 18]: 50
Plant response rating, Velvetleaf [3, 19]: 70
Plant response rating, Wheat [4, 18]: 0
Plant response rating, Wheat [4, 19]: 0
Plant response rating, Wild Oat (wild oat (Avena fatua); [18]): 0
Plant response rating, Wild Oat (wild oat (Avena fatua); [19]): 0
Plant response rating, Sunflower (Sunflower): 80
Plant response rating, Surinam grass [5, 18]: 0
Plant response rating, Surinam grass [5, 20]: 0
Plant response rating (0 to 100), Surinam grass [5, 21]: 70
Plant response rating, Surinam grass [5, 22]: 70
Plant response rating, Bermudagrass [6, 18]: 100
Plant response rating, Bermudagrass [6, 20]: 100
Plant response rating (0 to 100 where 0 is no effect and 100 is complete control), Bermudagrass [6, 21]: 100
Plant response rating, Bermudagrass [6, 22]: 100
Plant response rating, Corn (corn (Zea mays) [7]; [18]): 30
Plant response rating, Corn (corn (Zea mays) [7]; [20]): 30
Plant response rating (0 to 100), Corn (corn (Zea mays) [7]; [21]): 30
Plant response rating, Corn (corn (Zea mays) [7]; [22]): 30
Plant response rating, Crabgrass [8, 18]: 100
Plant response rating, Crabgrass [8, 20]: 100
Plant response rating (0 to 100), Crabgrass [8, 21]: 100
Plant response rating, Crabgrass [8, 22]: 100
Plant response rating, Foxtail, Giant [9, 18]: 100
Plant response rating, Foxtail, Giant [9, 20]: 100
Plant response rating (0 to 100), Foxtail, Giant [9, 21]: 100
Plant response rating, Foxtail, Giant [9, 22]: 100
Plant response rating, Goosegrass [10, 18]: 100
Plant response rating, Goosegrass [10, 20]: 100
Plant response rating (0 to 100), Goosegrass [10, 21]: 100
Plant response rating, Goosegrass [10, 22]: 100
Plant response rating, Johnsongrass [11, 18]: 60
Plant response rating, Johnsongrass [11, 20]: 0
Plant response rating (0 to 100), Johnsongrass [11, 21]: 90
Plant response rating, Johnsongrass [11, 22]: 90
Plant response rating, Lambsquarters [12, 18]: 100
Plant response rating, Lambsquarters [12, 20]: 100
Plant response rating (0 to 100), Lambsquarters [12, 21]: 100
Plant response rating, Lambsquarters [12, 22]: 100
Plant response rating, Morningglory [13, 18]: 100
Plant response rating, Morningglory [13, 20]: 30
Plant response rating (0 to 100), Morningglory [13, 21]: 100
Plant response rating, Morningglory [13, 22]: 100
Plant response rating, Pigweed [14, 18]: 100
Plant response rating, Pigweed [14, 20]: 100
Plant response rating (0 to 100), Pigweed [14, 21]: 100
Plant response rating, Pigweed [14, 22]: 100
Plant response rating, Soybean (soybean (Glycine max); [18]): 80
Plant response rating, Soybean (soybean (Glycine max); [20]): 70
Plant response rating (0 to 100), Soybean (soybean (Glycine max); [21]): 100
Plant response rating, Soybean (soybean (Glycine max); [22]): 80
Plant response rating, Velvetleaf [15, 18]: 70
Plant response rating, Velvetleaf [15, 20]: 70
Plant response rating (0 to 100), Velvetleaf [15, 21]: 100
Plant response rating, Velvetleaf [15, 22]: 90
Plant response rating, Cupgrass, Woolly [16, 18]: 100
Plant response rating, Cupgrass, Woolly [16, 20]: 90
Plant response rating (0 to 100), Cupgrass, Woolly [16, 21]: 100
Plant response rating, Cupgrass, Woolly [16, 22]: 100
Plant response rating, Nutsedge [17, 18]: 0
Plant response rating, Nutsedge [17, 20]: 0
Plant response rating (0 to 100), Nutsedge [17, 21]: 0
Plant response rating, Nutsedge [17, 22]: 0
